Results on eight molecules are retold here after patent publication US11884693B2, “1,3-acetonedicarboxylate-derived amphipathic compounds and uses thereof” (INDUSTRY-UNIVERSITY COOPERATION FOUNDATION HANYANG …, priority 2022, dated 2024).

Where only a bound is given, the exact number is not on record here.

Data set [1] in a line: Micelle size by dynamic light scattering (DLS). The note with it: micelles at 1.0% by weight. In kind it is physicochemical. As to the method: A method of measuring the radius of the micelles is not particularly limited, but methods widely known in the related art may be used. For example, the radius of the micelles may be measured using a dynamic light scattering (DLS) experiment.
(§1) To check the characteristics of ACAs synthesized according to the synthesis methods of Examples 1 to 4, critical micelle concentrations (CMCs) of the ACAs and hydrodynamic diameters (DO of the formed micelles were measured.
(§2) Specifically, the critical micelle concentration (CMC) was measured by fluorescence staining using diphenylhexatriene (DPH), and the hydrodynamic diameters (Dh) of the micelles formed by each of the preparations (1.0% by weight) were measured by means of a dynamic light scattering (DLS) experiment. The measured results are shown in Table 1 in comparison to DDM and octyl glucoside neopentyl glycol (OGNG), two existing amphipathic molecule (detergent).
In addition, the size distribution of the micelles formed by ACAs was examined by DLS. As a result, it was confirmed that the size of the micelles increased with an increasing length of the alkyl chain. This is because a compound having a cylindrical structure easy for self-assemblage is formed as more carbon is added to the hydrophobic end (FIG. 3).

A short description of data set [2]: Critical micelle concentration by fluorescence staining using diphenylhexatriene (DPH). The format is physicochemical. Conditions: aqueous solution. As to the method:
A method of measuring the CMC is not particularly limited, but a method widely known in the art may be used, and for example, the CMC may be measured by a fluorescent staining method using diphenylhexatriene (DPH).
as §1, §2

Data set [3] can be described thus: Water solubility of the detergents. The format is physicochemical.
The target of data set [4] is T1, mouse u-opioid receptor (MOR) (Mus musculus, UniProt P42866).
T1 construct: made in house
T1 sequence (P42866 whole entry): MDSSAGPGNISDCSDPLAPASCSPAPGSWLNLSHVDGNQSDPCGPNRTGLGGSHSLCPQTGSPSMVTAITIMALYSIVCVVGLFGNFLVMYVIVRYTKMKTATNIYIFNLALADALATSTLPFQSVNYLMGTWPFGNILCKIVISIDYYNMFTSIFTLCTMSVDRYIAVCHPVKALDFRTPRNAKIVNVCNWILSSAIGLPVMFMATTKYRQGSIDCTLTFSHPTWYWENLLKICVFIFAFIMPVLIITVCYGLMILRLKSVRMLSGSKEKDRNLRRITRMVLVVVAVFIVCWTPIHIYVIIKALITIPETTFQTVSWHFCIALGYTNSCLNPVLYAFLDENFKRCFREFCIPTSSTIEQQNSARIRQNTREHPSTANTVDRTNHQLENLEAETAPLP
The experiment in a line: MOR long-term stability, [3H]-diprenorphine ligand binding. The note with it: 0.1 wt % detergent, 4° C., after 8 hours of incubation. In kind it is biochemical. As to the method: To perform a long-term stability analysis, MOR in 0.1% LMNG was purified. […] MOR in each detergent was incubated for five days at 4° C. and its ligand binding capacity was measured at regular intervals during the incubation. The ligand binding ability of the receptor was measured by adding ˜1 nM of radioactive [^3H]-diprenorphine (DPN). The [^3H]-DPN-containing mixture was immobilized to an anti-flag resin and the resin was collected using GF/B filter paper and scintillation fluid was added into the filter paper. Receptor-bound […] was measured with a scintillation counter (Beckman).

Data set [5] addresses T2, melibiose permease of Salmonella typhimurium (MelBSt) (Salmonella typhimurium, UniProt P30878).
T2 construct: made in house; host or cells: E. coli DW2 (ΔmelB, ΔlacZY), plasmid pK95ΔΔHB/WT MelBSt/CH10
The experiment in a line: MelBSt extraction and thermal solubilization, SDS-PAGE and immunoblotting. Conditions: 1.5% (w/v) detergent, 90 min incubation at 55° C. In kind it is biochemical. The protocol: Melibiose and other galactoside transporter MelB was produced by E. coli DW2 strain (ΔmelB and ΔlacZY) harboring pK95ΔΔHB/WT MelBSt/CH10 plasmid. The plasmid contains the gene encoding the wild-type melibiose permease of Salmonella typhimurium (MelBSt) with a 10-His tag at the C-terminus. Cell growth and membrane preparation were carried out as described in A. S. Ethayathulla, et al., Nat. Commun. 2014, 5, 3009. Protein assay was carried out with a Micro BCA kit (Thermo Scientific). The membrane samples containing MelBSt (10 mg/mL) in a solubilization buffer (20 mM sodium phosphate, pH 7.5, 200 mM NaCl, 10% glycerol and 20 mM melibiose) were mixed with each individual detergent (ACA-SCs, ACA-ACs and DDM) at 1.5% (w/v). Protein extractions were carried out at 0° C. for 90 min. The protein samples were further incubated at three different temperatures (45, 55, and 65° C.) for 90 min. After extraction and incubation, insoluble fractions were removed by ultracentrifugation at 355,590 g in a Beckman Optima™ MAX Ultracentrifuge using a TLA-100 rotor for 45 min at 4° C. […] membrane proteins without ultracentrifugation and detergent extracts after the ultracentrifugation with the same volume were loaded for analysis by SDS-15% PAGE, and immunoblotting with a HisProbe-HRP antibody (Thermo Scientific) was conducted for visualizing the MelBSt.
For orientation: In western blotting, separated proteins are transferred to a membrane and probed.

T2 sequence (P30878 whole entry): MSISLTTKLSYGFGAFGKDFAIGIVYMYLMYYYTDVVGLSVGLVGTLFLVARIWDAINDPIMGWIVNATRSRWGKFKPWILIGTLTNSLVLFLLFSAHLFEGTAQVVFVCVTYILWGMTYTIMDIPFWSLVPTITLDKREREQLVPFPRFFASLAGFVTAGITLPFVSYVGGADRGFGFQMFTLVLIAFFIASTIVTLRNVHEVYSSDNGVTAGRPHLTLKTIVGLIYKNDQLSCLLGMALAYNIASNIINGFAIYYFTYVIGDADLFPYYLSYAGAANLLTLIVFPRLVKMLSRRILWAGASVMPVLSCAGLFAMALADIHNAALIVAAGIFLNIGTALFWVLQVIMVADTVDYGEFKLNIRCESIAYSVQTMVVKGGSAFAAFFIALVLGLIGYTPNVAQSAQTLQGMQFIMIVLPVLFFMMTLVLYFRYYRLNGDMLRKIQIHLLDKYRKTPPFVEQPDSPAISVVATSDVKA

Turning to `CCCCCCCCCCCCC(COC1OC(CO)C(O)C(O)C1O)C(OC1OC(CO)C(O)C(O)C1O)C(CCCCCCCCCCCC)COC1OC(CO)C(O)C(O)C1O` (mixture of isomers) [ACA-SC12], the “Rh (nm)” value in data set [1] was 8.3 ± 0.1 nm. Further, in data set [2], the “CMC” value is recorded as around 0.007 mM and the “CMC (% by weight)” value was around 0.0007 % by weight. The “Solubility (% by weight)” value in data set [3] is around 10 % by weight.
Regarding `CCCCCCCCCCCCO[C@@H]1O[C@H](CO)[C@@H](O[C@H]2O[C@H](CO)[C@@H](O)[C@H](O)[C@H]2O)[C@H](O)[C@H]1O` [DDM, n-dodecyl-β-D-maltopyranoside, reference compound], the “Rh (nm)” value in data set [1] amounted to 3.4 ± 0.3 nm. Also, in data set [2], the “CMC” value came out at 0.17 mM and the “CMC (% by weight)” value worked out at 0.0087 % by weight. Further, the “Solubility (% by weight)” value in data set [3] is above 10 % by weight. The “residual activity of MOR” value in data set [4] is 10%.
In the case of `CCCCCCCCCCCC(COC1OC(CO)C(O)C(O)C1O)C(OC1OC(CO)C(O)C(O)C1O)C(CCCCCCCCCCC)COC1OC(CO)C(O)C(O)C1O` (mixture of isomers) [ACA-SC11], in data set [1], the “Rh (nm)” value stood at 2.9 ± 0.3 nm. Further, in data set [2], the “CMC” value was around 0.010 mM and the “CMC (% by weight)” value is around 0.0009 % by weight. For the same molecule, in data set [3], the “Solubility (% by weight)” value is around 10 % by weight. The MelBSt solubilization ability result in data set [5] is recorded as “approximately 60%”.
Regarding `CCCCCCCCCCCCC(CCCCCCCCCCCC)(COC1OC(CO)C(O)C(O)C1O)C(CCOC1OC(CO)C(O)C(O)C1O)OC1OC(CO)C(O)C(O)C1O` (mixture of isomers) [ACA-AC12], the “Rh (nm)” value in data set [1] was 8.9 ± 0.7 nm. In data set [2], the “CMC” value is around 0.012 mM and the “CMC (% by weight)” value is around 0.0011 % by weight. Also, the “Solubility (% by weight)” value in data set [3] is reported as around 9 % by weight.
As to `CCCCCCCCCCCC(CCCCCCCCCCC)(COC1OC(CO)C(O)C(O)C1O)C(CCOC1OC(CO)C(O)C(O)C1O)OC1OC(CO)C(O)C(O)C1O` (mixture of isomers) [ACA-AC11], the “Rh (nm)” value in data set [1] is on record as 3.3 ± 0.2 nm. Also, in data set [2], the “CMC” value was around 0.014 mM and the “CMC (% by weight)” value is listed as around 0.0013 % by weight. In addition, in data set [3], the “Solubility (% by weight)” value was around 10 % by weight. Besides, the MelBSt solubilization ability result in data set [5] is on record as “approximately 70%”.
For the molecule `CCCCCCC(CCCCCC)(CO[C@@H]1O[C@H](CO)[C@@H](O)[C@H](O)[C@H]1O)CO[C@@H]1O[C@H](CO)[C@@H](O)[C@H](O)[C@H]1O` [OGNG, octyl glucoside neopentyl glycol, reference compound], the “Rh (nm)” value in data set [1] is on record as 4.4 ± 0.3 nm. Further, in data set [2], the “CMC” value is given as around 1.0 mM and the “CMC (% by weight)” value is listed as around 0.058 % by weight. Besides, the “Solubility (% by weight)” value in data set [3] was above 10 % by weight.
In the case of `CCCCCCCCCCC(CCCCCCCCCC)(COC1OC(CO)C(O)C(O)C1O)C(CCOC1OC(CO)C(O)C(O)C1O)OC1OC(CO)C(O)C(O)C1O` (mixture of isomers) [ACA-AC10], in data set [1], the “Rh (nm)” value was found to be 2.7 ± 0.2 nm. Further, in data set [2], the “CMC” value is listed as around 0.019 mM and the “CMC (% by weight)” value is recorded as around 0.0017 % by weight. For the same molecule, in data set [3], the “Solubility (% by weight)” value was above 10 % by weight.
For the molecule `CCCCCCCCCCCCCC(COC1OC(CO)C(O)C(O)C1O)C(OC1OC(CO)C(O)C(O)C1O)C(CCCCCCCCCCCCC)COC1OC(CO)C(O)C(O)C1O` (mixture of isomers) [ACA-SC13], the “Rh (nm)” value in data set [1] is 13.9 ± 1.1 nm. Also, in data set [2], the “CMC” value is on record as around 0.005 mM and the “CMC (% by weight)” value is around 0.0005 % by weight. The “Solubility (% by weight)” value in data set [3] was around 5 % by weight.
